Several values for one entry are separate records, joined by “and”; a condition that tells them apart may be missing. Equal values may be shown once. Inconclusive results and toxic doses are left out. No stated cut-off is given here; in the data, active means T/C of 150% or more; inactive means T/C below 125%.
Tested on: L1210 leukemia ip in BDF1 mice, survival T/C
Test: NCI In Vivo Anticancer Drug Screen. Data for tumor model L1210 Leukemia (intraperitoneal) in B6D2F1 (BDF1) mice
Details: endpoint: mean survival time, higher = longer survival
Summary of the method: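 In this screen, tumor-bearing mice given compound are compared to those given vehicle, and their survival values are reported as a treated-to-control quotient.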

[1] = dose: 100.0 mg/kg/injection, schedule: Q01DX001 (ip), vehicle: Klucel (hydroxypropylcellulose) (HPC)
[2] = dose: 100.0 mg/kg/injection, schedule: Q01DX009 (ip), vehicle: saline with Tween-80
[3] = dose: 100.0 mg/kg/injection, schedule: Q04DX003 (ip), vehicle: saline with Tween-80
[4] = dose: 200.0 mg/kg/injection, schedule: Q01DX001 (ip), vehicle: Klucel (hydroxypropylcellulose) (HPC)
[5] = dose: 200.0 mg/kg/injection, schedule: Q01DX009 (ip), vehicle: saline with Tween-80
[6] = dose: 200.0 mg/kg/injection, schedule: Q04DX003 (ip), vehicle: saline with Tween-80
[7] = dose: 400.0 mg/kg/injection, schedule: Q01DX001 (ip), vehicle: Klucel (hydroxypropylcellulose) (HPC)
[8] = dose: 400.0 mg/kg/injection, schedule: Q01DX009 (ip), vehicle: saline with Tween-80
[9] = dose: 400.0 mg/kg/injection, schedule: Q04DX003 (ip), vehicle: saline with Tween-80
[10] = dose: 25.0 mg/kg/injection, schedule: Q01DX009 (ip), vehicle: Klucel (hydroxypropylcellulose) (HPC)
[11] = dose: 50.0 mg/kg/injection, schedule: Q01DX009 (ip), vehicle: Klucel (hydroxypropylcellulose) (HPC)
[12] = dose: 100.0 mg/kg/injection, schedule: Q01DX009 (ip), vehicle: Klucel (hydroxypropylcellulose) (HPC)
[13] = dose: 200.0 mg/kg/injection, schedule: Q01DX009 (ip), vehicle: Klucel (hydroxypropylcellulose) (HPC)
[14] = dose: 400.0 mg/kg/injection, schedule: Q01DX009 (ip), vehicle: Klucel (hydroxypropylcellulose) (HPC)
[15] = dose: 100.0 mg/kg/injection, schedule: Q04DX003 (ip), vehicle: Klucel (hydroxypropylcellulose) (HPC)
[16] = dose: 200.0 mg/kg/injection, schedule: Q04DX003 (ip), vehicle: Klucel (hydroxypropylcellulose) (HPC)
[17] = dose: 400.0 mg/kg/injection, schedule: Q04DX003 (ip), vehicle: Klucel (hydroxypropylcellulose) (HPC)
[18] = dose: 100.0 mg/kg/injection, schedule: Q01DX001 (ip), vehicle: other
[19] = dose: 200.0 mg/kg/injection, schedule: Q01DX001 (ip), vehicle: other
[20] = dose: 100.0 mg/kg/injection, schedule: Q04DX002 (ip), vehicle: Klucel (hydroxypropylcellulose) (HPC)
[21] = dose: 200.0 mg/kg/injection, schedule: Q04DX002 (ip), vehicle: Klucel (hydroxypropylcellulose) (HPC)

Measured: T/C

Cc1cc(C)nc(NCC(=O)O)n1
inactive: dose: 50.0 mg/kg/injection, schedule: Q04DX002 (ip), vehicle: saline 95 % of control | dose: 100.0 mg/kg/injection, schedule: Q04DX002 (ip), vehicle: saline 95 % of control | dose: 200.0 mg/kg/injection, schedule: Q04DX002 (ip), vehicle: saline 95 % of control

COC(OC)c1nc(N)[nH]c(=O)c1Cc1ccc(Br)cc1
inactive: [1] 105 % of control | [2] 93 % of control | [3] 106 % of control | [4] 108 % of control | [5] 102 % of control | [6] 97 % of control | [7] 108 % of control | [8] 96 % of control | [9] 97 % of control

Cc1cc(C)c(N(CC(=O)O)S(=O)(=O)c2ccccc2)c(C)c1N(CC(=O)O)S(=O)(=O)c1ccccc1
inactive: [2] 101 % of control | [5] 98 % of control | [8] 97 % of control

C[P+]1(c2ccccc2)CCC(N)=C(C#N)C1 (stereo unspecified)
inactive: dose: 100.0 mg/kg/injection, schedule: Q04DX002 (ip), vehicle: saline with Tween-80 100 % of control

CC(=O)Nc1ccc(Br)cc1[N+](=O)[O-]
inactive: dose: 100.0 mg/kg/injection, schedule: Q01DX009 (ip), vehicle: acetone 92 % of control | dose: 200.0 mg/kg/injection, schedule: Q01DX009 (ip), vehicle: acetone 106 % of control | dose: 400.0 mg/kg/injection, schedule: Q01DX009 (ip), vehicle: acetone 101 % of control

S=C=NCc1ccc(Br)cc1
inactive: dose: 1.25 mg/kg/injection, schedule: Q01DX009 (ip), vehicle: other 95 % of control | dose: 2.5 mg/kg/injection, schedule: Q01DX009 (ip), vehicle: other 100 % of control | dose: 2.5 mg/kg/injection, schedule: Q04DX003 (ip), vehicle: other 103 % of control | dose: 5.0 mg/kg/injection, schedule: Q01DX009 (ip), vehicle: other 97 % of control | dose: 5.0 mg/kg/injection, schedule: Q04DX003 (ip), vehicle: other 103 % of control | dose: 10.0 mg/kg/injection, schedule: Q01DX001 (ip), vehicle: other 93 % of control | dose: 10.0 mg/kg/injection, schedule: Q04DX003 (ip), vehicle: other 88 % of control

COc1ccccc1OCC(O)COC(N)=O (stereo unspecified)
inactive: [10] 100 % of control | [11] 103 % of control | [12] 106 % of control | [13] 103 % of control | [14] 106 % of control

CNC(=O)NC1CCOCC1
inactive: dose: 100.0 mg/kg/injection, schedule: Q01DX001 (ip), vehicle: saline 100 % of control | dose: 200.0 mg/kg/injection, schedule: Q01DX001 (ip), vehicle: saline 96 % of control | dose: 400.0 mg/kg/injection, schedule: Q01DX001 (ip), vehicle: saline 96 % of control

O=C(Nc1cccc(F)c1)Nc1ccccc1Cl
inactive: [12] 105 % of control | [13] 97 % of control | [14] 95 % of control

C/C(CCC(=O)O)=N\NC(=O)COc1ccc(Cl)cc1Cl
inactive: [15] 94 % of control | [16] 98 % of control

Cc1nc2ncn(C3OC(CO)C(O)C3O)c2nc1C (stereo unspecified)
inactive: dose: 100.0 mg/kg/injection, schedule: Q01DX005 (ip), vehicle: saline 95 % of control | dose: 200.0 mg/kg/injection, schedule: Q01DX005 (ip), vehicle: saline 90 % of control

CCCCCCNP(=O)(Oc1ccccc1)Oc1ccccc1
inactive: [15] 97 % of control | [16] 97 % of control | [17] 105 % of control

Cc1cc(C)nc(NC(N)=NCCc2ccccc2)n1
inactive: dose: 12.5 mg/kg/injection, schedule: Q01DX009 (ip), vehicle: Klucel (hydroxypropylcellulose) (HPC) 101 % of control | dose: 12.5 mg/kg/injection, schedule: Q04DX003 (ip), vehicle: Klucel (hydroxypropylcellulose) (HPC) 102 % of control | [10] 101 % of control | dose: 25.0 mg/kg/injection, schedule: Q04DX003 (ip), vehicle: Klucel (hydroxypropylcellulose) (HPC) 100 % of control | [11] 101 % of control | dose: 50.0 mg/kg/injection, schedule: Q04DX003 (ip), vehicle: Klucel (hydroxypropylcellulose) (HPC) 102 % of control

CC(O)CN1CCCCC1 (stereo unspecified)
inactive: [18] 98 % of control | [3] 96 % of control | [19] 98 % of control | [6] 96 % of control

Cc1ccc(NCN2C(=O)NC(c3ccccc3)(c3ccccc3)C2=O)cc1
inactive: [1] 93 % of control | [4] 103 % of control | [7] 92 % of control

Cc1cc(=O)c2c(C)ccc(C)c2[nH]1
inactive: [18] 95 % of control | [19] 91 % of control | dose: 400.0 mg/kg/injection, schedule: Q01DX001 (ip), vehicle: other 98 % of control

BrCCCCOCBr
inactive: dose: 50.0 mg/kg/injection, schedule: Q01DX009 (ip), vehicle: saline with Tween-80 97 % of control | [2] 101 % of control | [5] 106 % of control

CN(C)C(=S)Oc1ccc(C(C)(C)C)cc1
inactive: [1] 96 % of control | [4] 98 % of control | [7] 90 % of control

CC(=O)Oc1c2c(n3c1CCC3)CC(C)CC2=O (stereo unspecified)
inactive: dose: 50.0 mg/kg/injection, schedule: Q04DX002 (ip), vehicle: Klucel (hydroxypropylcellulose) (HPC) 97 % of control | [20] 97 % of control | [21] 102 % of control

O=C(CCCl)NC1CC1c1ccccc1 (stereo unspecified)
inactive: [2] 90 % of control | [3] 97 % of control | [5] 95 % of control | [6] 97 % of control | [8] 94 % of control | [9] 95 % of control

CC1=C(C)CC2C(=O)OC(=O)C2C1 (stereo unspecified)
inactive: dose: 100.0 mg/kg/injection, schedule: Q01DX009 (ip), vehicle: saline 98 % of control | [15] 106 % of control | dose: 100.0 mg/kg/injection, schedule: Q04DX003 (ip), vehicle: saline 98 % of control | dose: 200.0 mg/kg/injection, schedule: Q01DX009 (ip), vehicle: saline 102 % of control | [16] 95 % of control | dose: 200.0 mg/kg/injection, schedule: Q04DX003 (ip), vehicle: saline 105 % of control | dose: 400.0 mg/kg/injection, schedule: Q01DX009 (ip), vehicle: saline 98 % of control | [17] 98 % of control | dose: 400.0 mg/kg/injection, schedule: Q04DX003 (ip), vehicle: saline 105 % of control

CC(C)(CO)N=Cc1ccccc1O.CC(C)(CO)N=Cc1ccccc1O.[Co]
inactive: dose: 12.5 mg/kg/injection, schedule: Q01DX001 (ip), vehicle: saline 97 % of control | dose: 25.0 mg/kg/injection, schedule: Q01DX001 (ip), vehicle: saline 97 % of control | dose: 50.0 mg/kg/injection, schedule: Q01DX001 (ip), vehicle: saline 92 % of control

O=C(Nc1ccc(Cl)c([N+](=O)[O-])c1)OCCOc1ccccc1
inactive: [2] 101 % of control | [3] 110 % of control | [5] 110 % of control | [6] 105 % of control | [8] 106 % of control | [9] 100 % of control

FC(F)(F)c1cccc(N2N=NC3CC/C(=C\c4ccccc4)C32N2CCOCC2)c1 (stereo unspecified)
inactive: [20] 97 % of control | [21] 90 % of control | dose: 400.0 mg/kg/injection, schedule: Q04DX002 (ip), vehicle: Klucel (hydroxypropylcellulose) (HPC) 93 % of control

Nc1nc(-c2ccccc2)c(CCCOc2ccccc2)c(=O)[nH]1
inactive: dose: 12.5 mg/kg/injection, schedule: Q01DX009 (ip), vehicle: gum acacia 95 % of control | dose: 25.0 mg/kg/injection, schedule: Q01DX009 (ip), vehicle: gum acacia 109 % of control | dose: 50.0 mg/kg/injection, schedule: Q01DX009 (ip), vehicle: gum acacia 100 % of control | dose: 100.0 mg/kg/injection, schedule: Q01DX009 (ip), vehicle: gum acacia 92 % of control and 90 % of control | dose: 400.0 mg/kg/injection, schedule: Q01DX009 (ip), vehicle: gum acacia 96 % of control
